Source: publication PMC5515859, “Metabolism of F18, a Derivative of Calanolide A, in Human Liver Microsomes and Cytosol” (Frontiers in Pharmacology, 2017)
pIC50, pKi: −log10 of the molar value. Like-named read-outs stand apart in the source and are kept apart here.

Assays:
[1] = test system: carbonyl reductases in HLcy; assay: Inhibition of carbonyl reduction of F18 (formation of M3-1 and M3-2) by chemical inhibitors in HLcy; format: in vitro ADME, human; conditions: F18 10 μM, 10 min
Method: F18 (10 μM) was incubated with HLMs (0.5 mg/mL) and the NADPH-generating system for 30 min or with HLcy and a cofactor (NADPH or NADH) for 10 min in the presence of chemical inhibitors under the above-described conditions. Control incubations using the vehicles but not the chemical inhibitors were also performed. The formation of M3-1 and M3-2 was quantified by LC-MS/MS.
The amounts of F18, M1, M2-9, M3-1, M3-2, M5-2, M5-3, M5-4, and M5-5 in the incubations were simultaneously quantified with the LC-MS/MS system. […] The sheath gas, auxiliary gas, spray voltage and tube lens parameters were the same as those for the metabolic profiling studies.

CYP2A6 = conditions: cited from earlier work
CYP2C8 = test system: CYP2C8; parameters: method as in FDA Drug Development and Drug Interactions; conditions: ref FDA Drug Development and Drug Interactions, cited from earlier work; for pKi: read-out: inhibitor Ki, CYP2C8
monkey liver microsomes = assay: Incubation of F18 with monkey liver microsomes, metabolite profiling; format: in vitro ADME; parameters: key: +: Metabolite detected; −: metabolite not detected; conditions: F18 50 μM, 1 h
Method: (§1) A stock solution of F18 (5 mM) was prepared in methanol. F18 (50 μM) was incubated with RLMs/DLMs/MLMs/HLMs and HLcy (0.5 mg protein/mL) in 50 mM Tris-HCl buffer containing 5 mM MgCl2 (pH 7.4) in a final volume of 200 μL. The final concentration of methanol in the incubation system was 1% (v/v). After 3 min of preincubation at 37°C, the reactions were initiated by the addition of NADPH-regenerating system (10-mM β-NADP, 100-mM 6-G-P and 10-U/mL 6-G-P-DH) or NADH. After incubation for 1 h, the reactions were terminated by the addition of two volumes of ice-cold acetonitrile. Samples without NADPH or NADH were included as controls. The incubation mixture was vortexed and centrifuged at 13,300 × g for 5 min. A 10 μL aliquot of the supernatant was injected into an LC-tandem mass spectrometer (LC-MS/MS) for analysis.
(§2) Metabolic profiling studies were performed with a Finnigan TSQ Quantum MS instrument with an electrospray ionization probe and a Finnigan SURVEYOR HPLC system (Thermo Finnigan, San Jose, CA, USA). HPLC was performed with a Zorbax SB-C18 column (2.1 × 100 mm, 3.5 μm, Agilent Corporation, CA, USA) with a column temperature of 35°C and a flow rate of 200 μL/min. F18 and its metabolites were eluted using a linear gradient method with a mobile phase consisting of solvent A (water with 0.1% formic acid) and solvent B (acetonitrile with 0.1% formic acid). […] The samples were analyzed in the positive-ionization mode, and the TSQ capillary temperature was set to 350°C. Nitrogen was used as both the sheath gas and the auxiliary gas and was delivered at 30 psi and 15 psi, respectively. The spray voltage and tube lens were set to 3,800 V and 123 V, respectively. The full-width half maximum (FWHM) was set to 0.7. MS data were acquired in the selective ion-recording mode or by collecting full scans from 200 to 600 m/z at 1 scan/s. The mass spectrometer and HPLC system were operated using Xcalibur 2.0.7 software.

human liver cytosol = assay: Incubation of F18 with human liver cytosol, metabolite profiling; format: in vitro ADME; parameters: key: +: Metabolite detected; −: metabolite not detected; conditions: F18 50 μM, 1 h
Method: as §1, §2

rat liver microsomes = assay: Incubation of F18 with rat liver microsomes, metabolite profiling; format: in vitro ADME; parameters: key: +: Metabolite detected; −: metabolite not detected; conditions: F18 50 μM, 1 h
Method: as §1, §2

dog liver microsomes = assay: Incubation of F18 with dog liver microsomes, metabolite profiling; format: in vitro ADME, beagle dog; parameters: key: +: Metabolite detected; −: metabolite not detected; conditions: F18 50 μM, 1 h
Method: as §1, §2

human liver microsomes = assay: Incubation of F18 with human liver microsomes, metabolite profiling by LC-MS/MS; format: in vitro ADME; parameters: key: +: Metabolite detected; −: metabolite not detected; conditions: F18 50 μM, 1 h
Method: as §1, §2

VSV-G/HIV-1 viruses = assay: microbe, parasite or virus in culture; format: cell-based; conditions: Human immunodeficiency virus 1, HEK-293T, 48 h, read-out: IC50, inhibition of HIV-1 replication
CYP2C9 = conditions: cited from earlier work
CYP2B6 = conditions: cited from earlier work
[2] = HLcy, cofactor not given, high concentration 50 μM
[3] = HLcy, cofactor not given, low concentration 10 μM
[4] = read-out: inhibitor Ki, CYP2A6, ref FDA Drug Development and Drug Interactions
[5] = HLcy with NADH, high concentration: dicumarol 50 μM, 4-methylpyrazole 500 μM
[6] = HLcy with NADH, low concentration: dicumarol 10 μM, 4-methylpyrazole 100 μM
[7] = HLcy with NADPH, high concentration: dicumarol 50 μM, 4-methylpyrazole 500 μM
[8] = HLcy with NADPH, low concentration: dicumarol 10 μM, 4-methylpyrazole 100 μM
[9] = read-out: inhibitor Ki, CYP2B6, ref FDA Drug Development and Drug Interactions
[10] = read-out: inhibitor Ki, CYP2C9, ref FDA Drug Development and Drug Interactions

## medroxyprogesterone
[1]; [2]
  Percentage of inhibition of the formation of M3-1, H: 24.9%
  Percentage of inhibition of the formation of M3-2, H: 38.8%
[1]; [3]
  Percentage of inhibition of the formation of M3-1, L: 24.3%
  Percentage of inhibition of the formation of M3-2, L: 35.8%

## N[C@@H]1C[C@H]1c1ccccc1 (racemic) [Tranylcypromine, tranylcypromine]
CYP2A6
  pKi: 6.70 to 7.70

## COc1cc(Cc2cnc(N)nc2N)cc(OC)c1OC [Trimethoprim]
CYP2C8
  pKi: 4.49

## CC(=O)O[C@H]1C(=O)[C@@]2(C)[C@H]([C@H](OC(=O)c3ccccc3)[C@]3(O)C[C@H](OC(=O)[C@H](O)[C@@H](NC(=O)c4ccccc4)c4ccccc4)C(C)=C1C3(C)C)[C@]1(OC(C)=O)CO[C@@H]1C[C@@H]2O [Taxol]
CYP2C8; Taxol 6-hydroxylation, N-DesethylAmodiaquine, read-out: substrate Km, CYP2C8
  Km: 5.4 to 19 µM

## Cc1cn[nH]c1 [4-methylpyrazole]
[1]; [5]
  Percentage of inhibition of the formation of M3-1, H: N.I.
  Percentage of inhibition of the formation of M3-2, H: N.I.
[1]; [6]
  Percentage of inhibition of the formation of M3-1, L: N.I.
  Percentage of inhibition of the formation of M3-2, L: N.I.
[1]; [7]
  Percentage of inhibition of the formation of M3-1, H: N.I.
  Percentage of inhibition of the formation of M3-2, H: N.I.
[1]; [8]
  Percentage of inhibition of the formation of M3-1, L: N.I.
  Percentage of inhibition of the formation of M3-2, L: N.I.

## C[C@H](CCC(=O)O)[C@H]1CC[C@H]2[C@@H]3[C@H](O)C[C@@H]4C[C@H](O)CC[C@]4(C)[C@H]3CC[C@]12C [Chenodeoxycholic, chenodeoxycholic acid]
[1]; [2]
  Percentage of inhibition of the formation of M3-1, H: 69.3%
  Percentage of inhibition of the formation of M3-2, H: 81.2%
[1]; [3]
  Percentage of inhibition of the formation of M3-1, L: 50.8%
  Percentage of inhibition of the formation of M3-2, L: 62.3%

## CC=Cc1cc(=O)oc2c3c(c4c(c12)OC(C)(C)C=C4)OC(CCl)CC3=O (stereo not drawn) [Metabolite M2-9]
Monkey liver microsomes
  F18 metabolite detected in MLM: −
Human liver cytosol
  F18 metabolite detected in HLcy with NADH: −
  F18 metabolite detected in HLcy with NADPH: −
Rat liver microsomes
  F18 metabolite detected in RLM: +
Dog liver microsomes
  F18 metabolite detected in DLM: −
Human liver microsomes
  F18 metabolite detected in HLM: +
VSV-G/HIV-1 viruses
  pIC50: 6.96

## O=c1oc2ccccc2c(O)c1Cc1c(O)c2ccccc2oc1=O [Dicumarol, dicumarol]
[1]; [5]
  Percentage of inhibition of the formation of M3-1, H: 51.5%
  Percentage of inhibition of the formation of M3-2, H: 49.6%
[1]; [6]
  Percentage of inhibition of the formation of M3-1, L: 16.0%
  Percentage of inhibition of the formation of M3-2, L: 6.7%
[1]; [7]
  Percentage of inhibition of the formation of M3-1, H: 70.6%
  Percentage of inhibition of the formation of M3-2, H: 82.2%
[1]; [8]
  Percentage of inhibition of the formation of M3-1, L: 52.3%
  Percentage of inhibition of the formation of M3-2, L: 67.7%

## NCCc1c[nH]c2ccccc12 [tr ypta mine]
CYP2A6; [4]
  pKi: 5.77

## CC1=CC(=O)c2ccccc2C1=O [Menadione, menadione]
[1]; [2]
  Percentage of inhibition of the formation of M3-1, H: 45.9%
  Percentage of inhibition of the formation of M3-2, H: 58.4%
[1]; [3]
  Percentage of inhibition of the formation of M3-1, L: 7.7%
  Percentage of inhibition of the formation of M3-2, L: 20.1%

## O=C(O)c1ccccc1Nc1cccc(C(F)(F)F)c1 [Flufenamic acid, flufenamic acid]
[1]; [2]
  Percentage of inhibition of the formation of M3-1, H: 87.9%
  Percentage of inhibition of the formation of M3-2, H: 94.0%
[1]; [3]
  Percentage of inhibition of the formation of M3-1, L: 82.4%
  Percentage of inhibition of the formation of M3-2, L: 88.5%

## CC(NC(C)(C)C)C(=O)c1cccc(Cl)c1 (stereo not drawn) [bupropion]
CYP2B6; read-out: substrate Km, CYP2B6, bupropion-hydroxylation, ref FDA Drug Development and Drug Interactions
  Km: 67 to 168 µM

## COC(=O)[C@H](c1ccccc1Cl)N1CCc2sccc2C1 [Clopidogrel]
CYP2B6
  pKi: 6.30

## CCC(O)c1cc(=O)oc2c3c(c4c(c12)OC(C)(C)C=C4)OC(CCl)CC3=O (stereo not drawn) [Metabolite M5-5]
Monkey liver microsomes
  F18 metabolite detected in MLM: +
Human liver cytosol
  F18 metabolite detected in HLcy with NADH: −
  F18 metabolite detected in HLcy with NADPH: −
Rat liver microsomes
  F18 metabolite detected in RLM: +
Dog liver microsomes
  F18 metabolite detected in DLM: −
Human liver microsomes
  F18 metabolite detected in HLM: +

## CCc1ccc(CCOc2ccc(CC3SC(=O)NC3=O)cc2)nc1 (stereo not drawn) [pioglitazone]
CYP2C8
  pKi: 5.77

## O=C(O)Cc1ccccc1Nc1c(Cl)cccc1Cl [Diclofenac]
CYP2C9
  Km: 3.4 to 52 µM

## c1ccc(C2(N3CCCCC3)CCCCC2)cc1 [Phencyclidine]
CYP2B6; [9]
  pKi: 5.00

## CCC(O)c1cc(=O)oc2c3c(c4c(c12)OC(C)(C)C=C4)OC(CCl)CC3=O (stereo not drawn) [Metabolite M5-4]
Monkey liver microsomes
  F18 metabolite detected in MLM: +
Human liver cytosol
  F18 metabolite detected in HLcy with NADH: −
  F18 metabolite detected in HLcy with NADPH: −
Rat liver microsomes
  F18 metabolite detected in RLM: +
Dog liver microsomes
  F18 metabolite detected in DLM: −
Human liver microsomes
  F18 metabolite detected in HLM: +

## CCC1(c2ccccc2)C(=O)NC(=O)NC1=O [Phenobarbital, phenobarbital]
[1]; [2]
  Percentage of inhibition of the formation of M3-1, H: N.I.
  Percentage of inhibition of the formation of M3-2, H: N.I.
[1]; [3]
  Percentage of inhibition of the formation of M3-1, L: N.I.
  Percentage of inhibition of the formation of M3-2, L: N.I.

## CC(O)Cc1cc(=O)oc2c3c(c4c(c12)OC(C)(C)C=C4)OC(CCl)CC3=O (stereo not drawn) [Metabolite M5-2]
Monkey liver microsomes
  F18 metabolite detected in MLM: +
Human liver cytosol
  F18 metabolite detected in HLcy with NADH: −
  F18 metabolite detected in HLcy with NADPH: −
Rat liver microsomes
  F18 metabolite detected in RLM: +
Dog liver microsomes
  F18 metabolite detected in DLM: +
Human liver microsomes
  F18 metabolite detected in HLM: +

## CNCCC(Oc1ccc(C(F)(F)F)cc1)c1ccccc1 (stereo not drawn) [fluoxetine]
CYP2C9; [10]
  pKi: 4.39 to 4.74

## OC(Cn1cncn1)(Cn1cncn1)c1ccc(F)cc1F [Fluconazole]
CYP2C9; [10]
  pKi: 5.15

## CC(O)Cc1cc(=O)oc2c3c(c4c(c12)OC(C)(C)C=C4)OC(CCl)CC3=O (stereo not drawn) [Metabolite M5-3]
Monkey liver microsomes
  F18 metabolite detected in MLM: +
Human liver cytosol
  F18 metabolite detected in HLcy with NADH: −
  F18 metabolite detected in HLcy with NADPH: −
Rat liver microsomes
  F18 metabolite detected in RLM: +
Dog liver microsomes
  F18 metabolite detected in DLM: +
Human liver microsomes
  F18 metabolite detected in HLM: +

## O=c1c(O)c(-c2ccc(O)c(O)c2)oc2cc(O)cc(O)c12 [Quercetin, quercetin]
CYP2C8
  pKi: […]
[1]; [2]
  Percentage of inhibition of the formation of M3-1, H: 80.4%
  Percentage of inhibition of the formation of M3-2, H: 87.0%
[1]; [3]
  Percentage of inhibition of the formation of M3-1, L: 41.5%
  Percentage of inhibition of the formation of M3-2, L: 54.6%
